Measurements as given in patent US20160193216A1 (Nimbus Iris, Inc., priority 2012, published 2016).
Structures can show the parent of a compound that is named as a salt. Where two headings read alike, the source gives them in different places.

Experiments:
IRAK4 = target: T1, IRAK4 (Homo sapiens, UniProt Q9NWZ3); test: IRAK-4 activity inhibition assay (Caliper); type: biochemical; settings: 37 μM ATP, 3.5 nM IRAK4
T1 sequence (Q9NWZ3 1-460): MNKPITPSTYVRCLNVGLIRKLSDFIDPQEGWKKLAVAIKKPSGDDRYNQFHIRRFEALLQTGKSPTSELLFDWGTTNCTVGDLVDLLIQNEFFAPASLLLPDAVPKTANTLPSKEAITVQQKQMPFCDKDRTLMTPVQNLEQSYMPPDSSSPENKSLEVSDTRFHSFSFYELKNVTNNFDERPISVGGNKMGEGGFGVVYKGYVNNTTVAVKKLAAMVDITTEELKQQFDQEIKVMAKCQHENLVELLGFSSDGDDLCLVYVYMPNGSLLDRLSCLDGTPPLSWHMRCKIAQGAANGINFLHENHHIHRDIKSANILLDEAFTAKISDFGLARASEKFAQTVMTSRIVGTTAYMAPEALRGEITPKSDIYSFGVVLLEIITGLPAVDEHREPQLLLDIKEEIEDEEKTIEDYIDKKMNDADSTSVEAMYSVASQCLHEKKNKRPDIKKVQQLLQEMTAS

THP-1 cells = test: LPS induced cytokine (TNFα and IL8) production assay in THP-1 cells; type: cell-based; settings: Homo sapiens, 300 ng/mL LPS
Procedure: Cytokine Production Assay
Provided compounds were also assayed in an LPS (Lipopolysacharide) or R848 (TLR-7 agonist) induced cytokine (TNFα and IL8) production assay in THP-1 cells, human peripheral blood mononuclear cells (hPBMC), and whole blood. The exemplary protocol for this assay in THP-1 cells was as follows below.
THP-1 cells from ATCC (TIB-202) were cultured in RPMI Medium 1640 (Invitrogen, Cat No. A10491-01), 10% fetal bovine serum (Invitrogen, Cat No. 10099141, Lot No. 8172882) containing 100 U/mL Penicillin, 100 μg/mL streptomycin (Invitrogen, Cat No. 15140-122), and 50 uM 2-Mercaptoethanol (Invitrogen, Cat No. 21985023). LPS-EK ultra pure (Invivogen, Cat No. tlrl-peklps) was used to induce IL8 and TNFα production, that was detected in the cell culture supernatant by IL8 HTRF kit (Cisbio, Cat No. 62IL8PEB) and TNFα HTRF kit (Cisbio, Cat No. 62TNFPEB), as per manufacturer instructions. Cells were cultured in 96 well assay plates at 100,000 cells per well, and compounds diluted in final 0.3% DMSO were pre-incubated with cells for 1 hour prior to stimulation with 300 ng/mL LPS. Cytokine production in cell supernatant was measured at 5 hours for TNFα and IL8 production, and for 16 hours for IL8 production and assessment of cell viability.
The compound numbers correspond to the compound numbers in Table 1. […] “NA” stands for “not assayed.”

| Structure (SMILES) | IC50 (IRAK4) | IC50 (THP-1 cells; read-out: IL8 production IC50) | IC50 (THP-1 cells; read-out: TNFα production IC50) |
| --- | --- | --- | --- |
| CN(C)[C@H]1CC[C@H](Oc2nc(Nc3ccccc3)nc3sc4c(c23)C(CC(N)=O)CC4)CC1 (some centres unmarked) [Compound I-204, 2-(12-[[4-(dimethylamino)cyclohexyl]oxy]-10-(phenylamino)-7-thia-9, 11-diazatricyclo[6.4.0.0̂[2,6]]dodeca-1(12),2(6),8, 10-tetraen-3-yl)acetamide] | – | 1000 to 5000 nM | 500 to 1000 nM |
| Cn1cc(Nc2nc(O[C@H]3CC[C@H](N(C)C)CC3)c3c4c(sc3n2)CCC4CC(N)=O)cn1 (stereo in doubt) [Compound I-222, 2-[(3R)-12-[[4-(dimethylamino)cyclohexyl]oxy]-10-[(1-methyl-1H-pyrazol-4-yl)amino]-7-thia-9, 11-diazatricyclo[6.4.0.0[2,6]]dodeca-1(8),2(6),9,11-tetraen-3-yl]acetamide] | – | ≥ 5000 nM | ≥ 5000 nM |
| CN(C)[C@H]1CC[C@H](Oc2ncnc3sc4c(c23)[C@@H](C[C@H](N)C(N)=O)CC4)CC1 [Compound I-160, (2S)-2-amino-3-[(3R)-12-[[4-(dimethylamino)cyclohexyl]oxy]-7-thia-9,11-diazatricyclo[6.4.0.0[2,6]]dodeca-1(8),2(6),9,11-tetraen-3-yl]propanamide] | < 5 µM | – | – |
| CC[C@H](O)C[C@H]1CCc2sc3ncnc(O[C@H]4CC[C@H](N(C)C)CC4)c3c21 [Compound I-107, (2S)-1-[(3R)-12-[[4-(dimethylamino)cyclohexyl]oxy]-7-thia-9,11-diazatricyclo[6.4.0.0[2,6]]dodeca-1(8),2(6),9,11-tetraen-3-yl]butan-2-ol] | < 5 µM | – | – |
| CN[C@H]1CC[C@H](Oc2ncnc3sc4c(c23)[C@@H](C[C@@H](C#N)OC)CC4)CC1 [Compound I-80, (2S)-2-methoxy-3-[(3R)-12-[[4-(methylamino)cyclohexyl]oxy]-7-thia-9,11-diazatricyclo[6.4.0.0[2,6]]dodeca-1(8),2(6),9,11-tetraen-3-yl]propanenitrile] | < 5 µM | – | – |

Second part, the compound after the results:

| IC50 (IRAK4) | IC50 (THP-1 cells; read-out: IL8 production IC50) | IC50 (THP-1 cells; read-out: TNFα production IC50) | Structure (SMILES) |
| --- | --- | --- | --- |
| < 5 µM | ≤ 500 nM | 500 to 1000 nM | CN(C)[C@H]1CC[C@H](Oc2ncnc3sc4c(c23)C[C@H](CCO)CC4)CC1 [Compound I-110, 2-[(12R)-3-[[4-(dimethylamino)cyclohexyl]oxy]-8-thia-4,6-diazatricyclo[7.4.0.0[2,7]]trideca-1(9),2(7),3,5-tetraen-12-yl]ethan-1-ol formate] |
| < 5 µM | 500 to 1000 nM | 1000 to 5000 nM | CO[C@H](C[C@H]1CCc2sc3ncnc(O[C@H]4CC[C@H](N(C)C)CC4)c3c21)C(N)=O [Compound I-77, (2R)-3-[(3R)-12-[[4-(dimethylamino)cyclohexyl]oxy]-7-thia-9,11-diazatricyclo[6.4.0.0[2,6]]dodeca-1(8),2(6),9,11-tetraen-3-yl]-2-methoxypropanamide] |
| < 5 µM | 1000 to 5000 nM | 500 to 1000 nM | CN(C)[C@H]1CC[C@H](Oc2ncnc3sc4c(c23)[C@@H](CCC(N)=O)CC4)CC1 [Compound I-44, 3-[(3S)-12-[[4-(dimethylamino)cyclohexyl]oxy]-7-thia-9,11-diazatricyclo[6.4.0.0[2,6]]dodeca-1(8),2(6),9,11-tetraen-3-yl]propanamide] |
| – | 1000 to 5000 nM | 1000 to 5000 nM | NC(=O)[C@H](O)C[C@H]1CCc2sc3ncnc(O[C@H]4CC[C@H](N5CCOCC5)CC4)c3c21 [Compound I-93, (R)-2-hydroxy-3-((R)-4-(((1r,4R)-4-morpholinocyclohexyl)oxy)-6,7-dihydro-5H-cyclopenta[4,5]thieno[2,3-d]pyrimidin-5-yl)propanamide] |
| – | ≤ 500 nM | ≤ 500 nM | NC(=O)C(O)C[C@H]1CCc2sc3ncnc(O[C@H]4CC[C@H](N5CCOCC5)CC4)c3c21 (mixture of isomers) [Compound I-87, 2-hydroxy-3-((R)-4-(((1r,4R)-4-morpholinocyclohexyl)oxy)-6,7-dihydro-5H-cyclopenta[4,5]thieno[2,3-d]pyrimidin-5-yl)propanamide] |
